Experimental data as given in ChEMBL document CHEMBL3813680, “Discovery of a 2-hydroxyacetophenone derivative as an outstanding linker to enhance potency and β-selectivity of liver X receptor agonist” (Bioorg Med Chem, 2016).
pEC50: −log10 of the molar value.

Experiments:
[1] = biological target: T1, Oxysterols receptor LXR-beta (Homo sapiens, UniProt P55055); experiment: Agonist activity at GAL4 fused LXRbeta-LBD (unknown origin) transfected in CHOK1 cells after 24 hrs by luciferase reporter gene assay
T1 sequence (P55055 whole entry): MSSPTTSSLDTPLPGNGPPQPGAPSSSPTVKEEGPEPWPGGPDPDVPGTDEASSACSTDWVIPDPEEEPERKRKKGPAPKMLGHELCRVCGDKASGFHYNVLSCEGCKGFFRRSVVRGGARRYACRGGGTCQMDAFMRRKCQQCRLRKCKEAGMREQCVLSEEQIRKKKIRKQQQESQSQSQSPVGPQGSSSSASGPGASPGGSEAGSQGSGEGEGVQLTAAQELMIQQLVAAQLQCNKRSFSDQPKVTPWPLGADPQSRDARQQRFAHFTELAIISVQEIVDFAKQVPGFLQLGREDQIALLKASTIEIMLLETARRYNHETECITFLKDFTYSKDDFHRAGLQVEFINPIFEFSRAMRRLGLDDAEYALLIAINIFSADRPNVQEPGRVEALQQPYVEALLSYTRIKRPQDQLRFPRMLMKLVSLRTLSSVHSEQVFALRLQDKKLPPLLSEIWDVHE

[2] = test system: Mus musculus; experiment: Upregulation of ABCA1 mRNA expression in LDL receptor knock-out mouse blood at 3 mg/kg, po relative to control; assay type: functional
[3] = test system: Mus musculus; experiment: Antiatherosclerosis activity in LDL receptor knock out mouse model assessed as increase in TC levels at 1 mg/kg, po by HPLC analysis relative to control; assay type: functional
[4] = test system: Mus musculus; experiment: Antiatherosclerosis activity in LDL receptor knock out mouse model assessed as increase in TG levels at 1 mg/kg, po by HPLC analysis relative to control; assay type: functional
[5] = test system: Mus musculus; experiment: Antiatherosclerosis activity in LDL receptor knock out mouse model assessed as decrease in area of lipid accumulation at 1 mg/kg, po by HPLC analysis relative to control; assay type: functional; design: scale not given: the % may be the effect or the level left
[6] = test system: Mus musculus; experiment: Upregulation of SREBP-1c expression in LDL receptor knock-out mouse liver at 3 mg/kg, po relative to control; assay type: functional
[7] = biological target: T2, Oxysterols receptor LXR-alpha (Homo sapiens, UniProt Q13133); experiment: Agonist activity at GAL4 fused LXRalpha (unknown origin) transfected in CHOK1 cells after 24 hrs by luciferase reporter gene assay
T2 sequence (Q13133 whole entry): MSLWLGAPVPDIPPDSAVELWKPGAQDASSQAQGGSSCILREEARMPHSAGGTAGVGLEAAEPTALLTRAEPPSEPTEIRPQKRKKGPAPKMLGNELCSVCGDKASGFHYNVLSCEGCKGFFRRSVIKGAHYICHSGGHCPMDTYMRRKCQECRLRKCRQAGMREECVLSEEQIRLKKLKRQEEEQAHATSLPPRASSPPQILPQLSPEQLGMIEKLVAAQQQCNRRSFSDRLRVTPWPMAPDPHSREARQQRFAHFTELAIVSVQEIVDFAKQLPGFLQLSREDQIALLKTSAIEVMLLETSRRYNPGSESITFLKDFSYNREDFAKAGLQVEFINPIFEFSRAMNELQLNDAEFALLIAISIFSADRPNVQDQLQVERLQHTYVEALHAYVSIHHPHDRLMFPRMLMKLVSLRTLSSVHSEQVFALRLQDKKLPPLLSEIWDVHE

[8] = test system: Mus musculus; experiment: Antiatherosclerosis activity in LDL receptor knock out mouse model assessed as increase in HDL-C levels at 3 mg/kg, po by HPLC analysis relative to control; assay type: functional
[9] = test system: Mus musculus; experiment: Antiatherosclerosis activity in LDL receptor knock out mouse model assessed as increase in HDL-C levels at 1 mg/kg, po by HPLC analysis relative to control; assay type: functional
[10] = test system: Mus musculus; experiment: Antiatherosclerosis activity in LDL receptor knock out mouse model assessed as increase in TG levels at 3 mg/kg, po by HPLC analysis relative to control; assay type: functional
[11] = test system: Mus musculus; experiment: Antiatherosclerosis activity in LDL receptor knock out mouse model assessed as decrease in area of lipid accumulation at 3 mg/kg, po by HPLC analysis relative to control; assay type: functional; design: scale not given: the % may be the effect or the level left
[12] = AUC in mouse plasma at 10 mg/kg, po measured up to 24 hrs by HPLC-LC-MS/MS analysis; assay type: ADME, organism-based; design: time < 24 hr, dose 10 mg/kg, route oral
[13] = test system: Mus musculus; experiment: Antiatherosclerosis activity in LDL receptor knock out mouse model assessed as LDL-C levels at 1 mg/kg, po by HPLC analysis relative to control; assay type: functional
[14] = Cmax in mouse plasma at 10 mg/kg, po measured up to 24 hrs by HPLC-LC-MS/MS analysis; assay type: ADME, organism-based; design: dose 10 mg/kg, route oral
[15] = test system: Mus musculus; experiment: Upregulation of SREBP-1c expression in LDL receptor knock-out mouse liver at 1 mg/kg, po relative to control; assay type: functional
[16] = test system: Mus musculus; experiment: Antiatherosclerosis activity in LDL receptor knock out mouse model assessed as increase in TC levels at 3 mg/kg, po by HPLC analysis relative to control; assay type: functional
[17] = test system: Mus musculus; experiment: Upregulation of ABCA1 mRNA expression in LDL receptor knock-out mouse blood at 1 mg/kg, po relative to control; assay type: functional
[18] = test system: Mus musculus; experiment: Antiatherosclerosis activity in LDL receptor knock out mouse model assessed as decrease in LDL-C levels at 3 mg/kg, po by HPLC analysis relative to control; assay type: functional; design: scale not given: the % may be the effect or the level left

pEC50 [1]: 8.15 | pEC50 [7]: 6.70 | AUC at 24 h [12]: 3030 ng·h/mL | Cmax [14]: 503 ng/mL
Compound: CCCc1cc(C(O)(C(F)(F)F)C(F)(F)F)ccc1Oc1ccc(C(=O)CN2C(=O)NC(C)(c3ccc(OC(C)C)cn3)C2=O)c(O)c1 (single isomer, unassigned; (-))
fold change (FC) [2]: 3 | Activity [3]: 111% | Activity [4]: 152% | Activity [5]: 62% | fold change (FC) [6]: 1.5 | Activity [8]: 116% | Activity [9]: 115% | Activity [10]: 166% | Activity [11]: 59% | Activity [13]: 108% | fold change (FC) [15]: 1.2 | Activity [16]: 102% | fold change (FC) [17]: 2.1 | Activity [18]: 97%
